Experimental data as given in patent US11667638B2, “4-substitued cytisine analogues” (The University of Bristol, priority 2016, dated 2023).

Key:
(α4)3(β2)2 nAChRs = (α4)3(β2)2 nAChRs (Homo sapiens (Human), UniProt P17787+P43681); assay: Maximal gating efficacy on (α4)3(β2)2 nAChRs in Xenopus oocytes, two electrode voltage clamp; type: cell-based; details: (α4)3(β2)2, low sensitivity stoichiometry; maximal current relative to 1 mM ACh
Procedure: (§1) Compounds of the invention were tested for effects on the function of human α4β2, α3β4 and α7 nicotinic acetylcholine receptors (nAChRs) expressed heterologously in Xenopus oocytes. […] Expression in oocytes was obtained as follows: pCI (Promega, UK) plasmid containing human α4, β2, β4 or α7 complementary DNA were injected as previously described (Moroni et al., 2006). To express (α4)3(β2)2 nACh receptors, a mixture of 10α4:1β2 cDNAs was injected into the nucleus of oocytes, whereas for (α4)2(β2)3 receptors the cDNA ratio injected was 1α4:10β2.
(§2) Functional studies: Recordings were performed manually using a Geneclamp amplifier (Molecular Devices, USA) or using an automated HiClamp system. In both cases the oocytes were impaled with two electrodes filled with 3 M KCl and the cells were held at −60 mV throughout the experiments.
(§3) Oocyte isolation and two-electrode voltage-clamp recordings on oocytes were carried out as previously described (Moroni et al., 2006; Carbone et al., 2009). […] A minimum interval of 5 min was allowed between agonist applications to ensure reproducible recordings. Oocytes were exposed to increasing concentrations of the compounds until no further increases in the response amplitude were obtained. This concentration was taken as the concentration that causes maximal responses on the receptors tested. The data summarised in Tables 1-4 were obtained from at least 5 experiments carried out on oocytes obtained from at least three different donors.
Maximal gating efficacy of the compounds: The concentration of the compounds of the invention causing maximal activation of the (α4)3(β2)2 nAChRs expressed heterologously in Xenopus oocytes was determined using two electrode voltage clamping.

α3β4 nAChRs = α3β4 nAChRs (Homo sapiens (Human), UniProt P30926+P32297); assay: Maximal gating efficacy on α3β4 nAChRs in Xenopus oocytes, two electrode voltage clamp; type: cell-based; details: maximal current relative to 1 mM ACh
Sequence of α3β4 nAChRs (P32297 32-505): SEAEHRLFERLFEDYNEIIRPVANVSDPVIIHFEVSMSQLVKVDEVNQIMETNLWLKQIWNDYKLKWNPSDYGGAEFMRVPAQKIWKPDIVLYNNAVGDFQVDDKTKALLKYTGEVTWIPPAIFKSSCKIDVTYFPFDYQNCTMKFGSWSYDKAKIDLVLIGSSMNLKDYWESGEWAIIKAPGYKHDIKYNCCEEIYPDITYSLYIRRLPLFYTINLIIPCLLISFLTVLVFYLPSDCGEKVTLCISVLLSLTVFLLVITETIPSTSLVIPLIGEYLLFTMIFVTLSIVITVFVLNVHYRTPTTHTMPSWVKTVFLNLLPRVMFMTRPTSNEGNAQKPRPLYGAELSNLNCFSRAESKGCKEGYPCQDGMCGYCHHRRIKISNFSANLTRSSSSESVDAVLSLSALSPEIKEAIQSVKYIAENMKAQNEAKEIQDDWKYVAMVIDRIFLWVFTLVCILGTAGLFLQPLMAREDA
Sequence of α3β4 nAChRs (P30926 22-498): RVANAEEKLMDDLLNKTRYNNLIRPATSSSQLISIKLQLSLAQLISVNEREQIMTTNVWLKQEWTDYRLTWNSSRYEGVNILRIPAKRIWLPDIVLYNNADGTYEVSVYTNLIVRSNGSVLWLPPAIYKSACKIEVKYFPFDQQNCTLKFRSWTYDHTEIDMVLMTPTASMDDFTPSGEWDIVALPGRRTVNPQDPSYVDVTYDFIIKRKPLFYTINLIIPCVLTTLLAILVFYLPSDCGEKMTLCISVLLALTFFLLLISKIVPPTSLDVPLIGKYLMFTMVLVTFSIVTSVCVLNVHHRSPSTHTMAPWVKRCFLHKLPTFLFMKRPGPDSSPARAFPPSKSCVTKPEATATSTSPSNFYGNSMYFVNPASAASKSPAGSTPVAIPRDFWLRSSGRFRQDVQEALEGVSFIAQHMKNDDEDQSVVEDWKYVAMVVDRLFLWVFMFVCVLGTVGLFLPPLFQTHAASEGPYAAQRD
Procedure: as §1, §2, §3
Maximal gating efficacy of the compounds on α3β4 nAChRs: The concentration of the compounds causing maximal activation of α3β4 nAChRs expressed heterologously in Xenopus oocytes was determined using two electrode voltage clamping.

α4β2 nAChR = α4β2 nAChR (Homo sapiens (Human), UniProt P17787+P43681); type: binding; details: ratio of Ki values
Sequence of α4β2 nAChR (P43681 29-627 limits assumed): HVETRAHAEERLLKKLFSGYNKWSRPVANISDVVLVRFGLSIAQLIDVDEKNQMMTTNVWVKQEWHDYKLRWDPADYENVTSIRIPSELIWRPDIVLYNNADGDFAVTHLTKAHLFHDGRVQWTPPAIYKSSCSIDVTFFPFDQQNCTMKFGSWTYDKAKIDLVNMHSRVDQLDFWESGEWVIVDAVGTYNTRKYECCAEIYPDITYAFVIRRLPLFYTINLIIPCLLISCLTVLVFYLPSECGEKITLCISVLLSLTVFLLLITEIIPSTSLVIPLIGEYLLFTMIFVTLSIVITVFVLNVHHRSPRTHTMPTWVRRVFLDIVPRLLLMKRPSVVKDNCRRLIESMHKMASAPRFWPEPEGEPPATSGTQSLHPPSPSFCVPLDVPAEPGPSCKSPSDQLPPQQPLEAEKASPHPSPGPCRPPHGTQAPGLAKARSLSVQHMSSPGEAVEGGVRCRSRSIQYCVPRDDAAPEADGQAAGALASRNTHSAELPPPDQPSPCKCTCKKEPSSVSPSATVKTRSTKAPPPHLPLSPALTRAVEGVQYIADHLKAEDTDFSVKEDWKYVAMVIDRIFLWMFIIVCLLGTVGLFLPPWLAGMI
Sequence of α4β2 nAChR (P17787 26-502 limits assumed): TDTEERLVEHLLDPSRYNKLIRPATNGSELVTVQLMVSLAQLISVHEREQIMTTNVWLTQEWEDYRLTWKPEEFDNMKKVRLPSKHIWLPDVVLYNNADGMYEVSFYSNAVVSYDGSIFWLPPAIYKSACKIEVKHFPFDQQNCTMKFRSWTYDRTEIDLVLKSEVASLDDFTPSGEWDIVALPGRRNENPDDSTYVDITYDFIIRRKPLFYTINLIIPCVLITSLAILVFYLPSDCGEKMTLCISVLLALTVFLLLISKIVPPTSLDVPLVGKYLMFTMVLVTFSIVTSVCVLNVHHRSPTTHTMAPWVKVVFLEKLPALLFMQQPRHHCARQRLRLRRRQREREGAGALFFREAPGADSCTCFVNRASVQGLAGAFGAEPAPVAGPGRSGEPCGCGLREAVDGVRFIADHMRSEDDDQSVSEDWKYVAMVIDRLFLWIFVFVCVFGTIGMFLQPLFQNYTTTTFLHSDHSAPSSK
Procedure: HEK 293 cells were grown in Dulbecco's modified Eagle medium supplemented with 10% fetal bovine serum, 1% L-Glutamine, 100 units/ml penicillin G, and 100 μg/streptomycin in a humidified atmosphere containing 10% CO2. The cDNAs encoding α3 and β4 or α4 and β2 (were transfected into the HEK 293 cells at 30% confluency). The cell transfections were carried out in 100 mm Petri dishes using 30 μL of JetPEI™ (Polypus, France) (1 mg/ml, pH 7.2) and 3 μg of each cDNA. After 24 h transfection, the cells were collected, washed with PBS by centrifugation, and used for binding analysis.
[^3H]-epibatidine saturation binding experiments to HEK transfected α3β4 or α4β2 receptors were performed by means of overnight incubation at 4° C. at concentrations ranging from 0.005 to 1 nM in a buffer containing 50 mM Tris-HCl, pH 7, 150 mM NaCl, 5 mM KCl, 1 mM MgCl2, 2.5 mM CaCl2 and 2 mg/ml BSA, in the presence (aspecific binding) or absence (total binding) of 100 nM cold epibatidine. Specific ligand binding was defined as total binding minus the binding in the presence of 100 nM cold epibatidine.
After incubation, the membranes of HEK cells transfected with α4β2* or α3β4 subtypes were washed by filtration on GFC filters with ice-cold PBS. The GFC filters were pre-soaked in polyethylenimine and filtered through an harvester apparatus. [^3H]-epibatidine binding was determined by means of liquid scintillation counting in a beta counter.
The ligand binding data were analyzed by means of nonlinear regression using Prism version 5 (GraphPad Software, Inc., La Jolla, Calif.). The Ki values were calculated from the experimental IC50 values using the Cheng-Prusoff equation for a single population of competitive sites: Ki=IC50/[1+(L/Kd)], where L is the concentration of radioligand used in each experiment and the Kd values were determined by saturation binding experiment. All of the assays were performed in duplicate and repeated at least two-three times.

(α4)2(β2)3 nAChRs = (α4)2(β2)3 nAChRs (Homo sapiens (Human), UniProt P17787+P43681); assay: Maximal gating efficacy on (α4)2(β2)3 nAChRs in Xenopus oocytes, two electrode voltage clamp; type: cell-based; details: (α4)2(β2)3, high sensitivity receptors; maximal current relative to 1 mM ACh
Sequence of (α4)2(β2)3 nAChRs (P43681 29-627): as the sequence (P43681 29-627 limits assumed) above
Sequence of (α4)2(β2)3 nAChRs (P17787 26-502): as the sequence (P17787 26-502 limits assumed) above
Procedure: as §1, §2, §3
Maximal gating efficacy of compounds on (α4)2(β2)3 receptors (high sensitivity receptors): The concentration of the compounds causing maximal activation of the (α4)2(β2)3 nAChRs expressed heterologously in Xenopus oocytes was determined using two electrode voltage clamping.

Sequence of (α4)3(β2)2 nAChRs (P43681 29-627): as the sequence (P43681 29-627 limits assumed) above
Sequence of (α4)3(β2)2 nAChRs (P17787 26-502): as the sequence (P17787 26-502 limits assumed) above

Compound	Relative efficacy (ACh) ((α4)3(β2)2 nAChRs)	Relative efficacy (ACh) (α3β4 nAChRs)	Ratio α3β4/α4β2 (α4β2 nAChR)	Relative efficacy (ACh) ((α4)2(β2)3 nAChRs)
Nc1cc2n(c(=O)c1Br)CC1CNCC2C1 (single isomer, unassigned; (+)) [BS71, (+)-(3-bromo-4-amino)cytisine]	0.152 ± 0.1223	0.632 ± 0.067	–	–
Nc1cc2n(c(=O)c1)CC1CNC[C@@H]2C1 (single isomer, unassigned; (+)) [Compound 81, (+)4-aminocytisine]	0.007 ± 0.01061	0.0210 ± 0.008	1561.0	0.024 ± 0.034
CNc1cc2n(c(=O)c1)CC1CNC[C@@H]2C1 (single isomer, unassigned; (+)) [Compound 84, (+)4-(N-Methylamino)cytisine]	0.048 ± 0.040	0.0233 ± 0.005	2546.3	0.042 ± 0.059
CN(C)c1cc2n(c(=O)c1)CC1CNC[C@@H]2C1 (single isomer, unassigned; (+)) [Compound 86, (+)4-(N,N′-dimethylamino)cytisine]	–	–	5.8	–
CCNc1cc2n(c(=O)c1)CC1CNCC2C1 (single isomer, unassigned; (+)) [Compound 87, (+)4-(N-ethylamino)cytisine]	0.011 ± 0.001	0.010 ± 0.009	835.2	0.023 ± 0.032
O=c1cc(N2CCNCC2)cc2n1CC1CNC[C@@H]2C1 (single isomer, unassigned; (+)) [Compound 90, (+)4-(N-piperazinyl)cytisine]	–	–	14.1	–
O=c1cc(N2CCOCC2)cc2n1CC1CNC[C@@H]2C1 (single isomer, unassigned; (+)) [Compound 92, (+)4-N-morpholinecytisine]	–	–	70.6	–
O=C(Nc1cc2n(c(=O)c1)CC1CNC[C@@H]2C1)c1ccccc1 (single isomer, unassigned; (+)) [Compound 96, (+)4-(N-Benzoylamino)cytisine]	–	–	89.6	–
Cl.O=c1cc(/C=C/c2ccccc2)cc2n1CC1CNC[C@@H]2C1 (single isomer, unassigned; (+)) [Compound 114, (+)4-(E-(2-phenylethenyl))cytisine]	–	–	145.5	–
C=Cc1cc2n(c(=O)c1)CC1CNC[C@@H]2C1 (single isomer, unassigned; (+)) [Compound 116, (+)4-Vinylcytisine]	–	–	100.1	–
Cl.O=c1cc(C#Cc2ccccc2)cc2n1CC1CNC[C@@H]2C1 (single isomer, unassigned; (+)) [Compound 129, (+)4-(phenylacetylene)cytisine]	–	–	32.2	–
CNc1cc2n(c(=O)c1Br)CC1CNC[C@@H]2C1 (single isomer, unassigned; (+)) [Compound 158, (+)3-Bromo-4-N-methylaminocytisine]	0.049 ± 0.012	0.057 ± 0.016	106.9	0.038 ± 0.054
Cl.O=c1c(Br)c(I)cc2n1CC1CNC[C@@H]2C1 (single isomer, unassigned; (+)) [Compound 160, (+)3-Bromo-4-iodocytisine]	–	–	50.0	–
O=c1c(Br)c(O)cc2n1CC1CNCC2C1 (single isomer, unassigned; (-)) [BS70, (−)-(3-bromo-4-hydroxy)cytisine]	0.114 ± 0.113	0.108 ± 0.149	–	–
CCc1cc2n(c(=O)c1Br)CC1CNCC2C1 (single isomer, unassigned; (-)) [BS74, (−)-(3-bromo-4-ethyl)cytisine]	0.126 ± 0.067	1.75 ± 0.56	–	0.121 ± 0.171
Cl.O=c1cc(C(F)(F)F)cc2n1CC1CNC[C@@H]2C1 (single isomer, unassigned; (-)) [Compound 77, (−)4-Trifluoromethylcytisine]	–	–	12.9	–

Compound	Relative efficacy (ACh) ((α4)3(β2)2 nAChRs)	Relative efficacy (ACh) (α3β4 nAChRs)	Ratio α3β4/α4β2 (α4β2 nAChR)	Relative efficacy (ACh) ((α4)2(β2)3 nAChRs)
Cl.O=c1cc(CC(F)(F)F)cc2n1CC1CNC[C@@H]2C1 (single isomer, unassigned; (-)) [Compound 79, (−)4-(2,2,2-Trifluoroethyl)cytisine]	–	–	27.4	–
Cl.O=c1ccccn1-c1cc2n(c(=O)c1)CC1CNC[C@@H]2C1 (single isomer, unassigned; (-)) [Compound 108, (−)4-(N-2-pyridone)cytisine]	–	–	90.3	–
COC(=O)c1cc2n(c(=O)c1)CC1CNC[C@@H]2C1 (single isomer, unassigned; (-)) [Compound 119, (−)4-carboxymethycytisine]	0.021 ± 0.007	0.040 ± 0.049	366.5	0.0065 ± 0.0005
O=C(O)c1cc2n(c(=O)c1)CC1CNC[C@@H]2C1 (single isomer, unassigned; (-)) [Compound 120, (−)4-Carboxylic acidcytisine]	–	–	57.7	–
O=C(O)[C@@H]1CCCN1c1cc2n(c(=O)c1)CC1CNC[C@@H]2C1 (single isomer, unassigned; (-)) [Compound 138, (−)4-(N-(L-proline)cytisine]	–	–	2.7	–
Cl.NC(=O)c1cc2n(c(=O)c1)CC1CNC[C@@H]2C1 (single isomer, unassigned; (-)) [Compound 142, (−)4-(carboxyamido)cytisine]	–	–	36.2	–
NCc1cc2n(c(=O)c1)CC1CNC[C@@H]2C1 (single isomer, unassigned; (-)) [Compound 144, (−)4-(aminomethyl)cytisine]	–	–	78.0	–
O=c1cc(-c2nnn[nH]2)cc2n1CC1CNC[C@@H]2C1 (single isomer, unassigned; (-)) [Compound 149, (−)4-tetrazoylcytisine]	–	–	149.2	–
CNCc1cc2n(c(=O)c1)CC1CNC[C@@H]2C1 (single isomer, unassigned; (-)) [Compound 152, (−)4-((N-methyl)aminomethyl)cytisine]	0.031 ± 0.043	–	807.0	–
Cl.O=c1cc(CCc2ccccc2)cc2n1CC1CNC[C@@H]2C1 [?]	–	–	21.7	–
CC(=O)OCC[N+](C)(C)C [ACh, reference compound]	1	1.0	–	1.0
O=c1cc(NCc2ccccc2)cc2n1CC1CNC[C@@H]2C1 [Compound 78]	–	–	125.0	–
NCC(=O)Nc1cc2n(c(=O)c1)CC1CNC[C@@H]2C1 [Compound 98]	–	–	1670.0	–
CN(C)Cc1cc2n(c(=O)c1)CC1CNC[C@@H]2C1 [Compound 151, 4-(dimethylamino)methyl-(−)-cytisine]	–	–	105.7	–
(+)4-(E-2-propenoate methyl ester)cytisine [Compound 112]	–	–	152.8	–
(−)4-(3-Pyridinyl)cytisine [Compound 104]	–	–	168.7	–
